Data: patent US8609661B2, “Pyrimido-pyrrolo-quinoxalinedione inhibitors of cystic fibrosis transmembrane conductance regulator protein and uses therefor” (The Regents of the University of California, priority 2009, dated 2013)

Target: T1, human wildtype CFTR (Homo sapiens, UniProt P13569)
T1 construct: expressed in transfected cells; host or cells: Fischer rat thyroid (FRT) cells
Assay: Fluorescence platereader assay of CFTR-mediated iodide influx (YFP quenching) in FRT cells
Assay type: cell-based
Conditions: FRT, Table 2, screening; for inhibition at 5 µM: read-out: % Inhibition at 5 μM; for inhibition at 25 µM: read-out: % Inhibition at 25 μM
Outline: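 Fischer rat thyroid cells co-expressing human wildtype CFTR and the YFP-H148Q/1152L halide sensor were seeded at 20,000 cells per well in 96-well black-walled plates and assayed 48 h later at confluence. After PBS washes and a 15 min incubation, CFTR was maximally activated with an agonist mixture. Fluorescence was recorded for 2 s before and 10 s after adding 160 μL iodide-substituted PBS, and iodide influx rates came from non-linear regression.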

T1 sequence (P13569 whole entry): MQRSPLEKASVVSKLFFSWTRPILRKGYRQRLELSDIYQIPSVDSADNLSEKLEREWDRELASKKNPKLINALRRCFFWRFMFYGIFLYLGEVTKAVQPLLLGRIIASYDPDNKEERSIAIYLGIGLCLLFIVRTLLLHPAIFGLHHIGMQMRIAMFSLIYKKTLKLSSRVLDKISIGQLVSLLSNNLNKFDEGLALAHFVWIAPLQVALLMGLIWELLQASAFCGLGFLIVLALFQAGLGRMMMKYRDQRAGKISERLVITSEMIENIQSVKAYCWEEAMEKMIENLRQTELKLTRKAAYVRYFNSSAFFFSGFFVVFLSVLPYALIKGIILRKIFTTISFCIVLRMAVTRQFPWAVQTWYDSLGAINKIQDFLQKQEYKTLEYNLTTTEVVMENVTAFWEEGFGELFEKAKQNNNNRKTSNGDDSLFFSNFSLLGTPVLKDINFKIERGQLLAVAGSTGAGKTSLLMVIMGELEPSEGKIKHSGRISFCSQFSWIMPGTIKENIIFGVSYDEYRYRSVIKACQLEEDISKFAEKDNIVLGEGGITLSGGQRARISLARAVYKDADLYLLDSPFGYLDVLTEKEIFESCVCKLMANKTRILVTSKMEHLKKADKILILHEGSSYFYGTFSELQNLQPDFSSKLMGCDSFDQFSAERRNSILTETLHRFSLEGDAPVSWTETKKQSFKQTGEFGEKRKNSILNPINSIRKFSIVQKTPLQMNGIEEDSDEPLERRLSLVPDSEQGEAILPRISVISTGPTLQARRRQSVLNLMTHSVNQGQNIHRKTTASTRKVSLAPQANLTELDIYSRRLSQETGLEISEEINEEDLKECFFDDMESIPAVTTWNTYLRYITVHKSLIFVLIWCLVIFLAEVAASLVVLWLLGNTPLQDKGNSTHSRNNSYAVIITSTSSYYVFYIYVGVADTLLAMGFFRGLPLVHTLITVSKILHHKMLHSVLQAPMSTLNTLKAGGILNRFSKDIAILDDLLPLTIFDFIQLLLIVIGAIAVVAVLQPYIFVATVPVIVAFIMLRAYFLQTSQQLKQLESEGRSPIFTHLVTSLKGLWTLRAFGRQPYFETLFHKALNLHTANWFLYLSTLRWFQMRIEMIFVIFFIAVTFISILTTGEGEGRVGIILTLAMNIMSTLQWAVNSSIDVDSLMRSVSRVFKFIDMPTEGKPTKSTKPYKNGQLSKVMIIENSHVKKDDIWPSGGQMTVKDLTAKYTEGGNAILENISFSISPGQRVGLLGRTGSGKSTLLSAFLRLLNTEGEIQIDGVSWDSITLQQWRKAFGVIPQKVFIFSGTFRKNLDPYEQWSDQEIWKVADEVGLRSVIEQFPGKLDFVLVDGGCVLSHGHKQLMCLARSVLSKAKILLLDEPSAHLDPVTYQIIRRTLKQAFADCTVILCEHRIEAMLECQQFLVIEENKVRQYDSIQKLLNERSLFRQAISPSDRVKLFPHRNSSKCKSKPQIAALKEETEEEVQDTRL

inhibition at 5 µM	inhibition at 25 µM	SMILES
< 10%	87%	CCOc1ccccc1C1Nc2ccccc2-n2c(-c3cccc(C)c3)c3c(=O)n(C)c(=O)n(C)c3c21 (stereo not shown) [PPQ-231, 7,9-Dimethyl-11-(3-methylphenyl)-6-(2-ethoxyphenyl)-5,6-dihydro-pyrimido[4′,5′-3,4]pyrrolo[1,2-a]quinoxaline-8,10-(7H,9H)-dione]
67%	67%	Cc1cccc(C2Nc3ccccc3-n3c(-c4ccccc4)c4c(=O)n(C)c(=O)n(C)c4c32)c1 (stereo not shown) [PPQ-232, 7,9-Dimethyl-11-phenyl-6-(3-methylphenyl)-5,6-dihydro-pyrimido[4′,5′-3,4]pyrrolo[1,2-a]quinoxaline-8,10-(7H,9H)-dione]
28%	82%	Cn1c(=O)c2c(-c3ccccc3F)n3c(c2n(C)c1=O)C(c1ccc(F)cc1)Nc1ccccc1-3 (stereo not shown) [PPQ-233, 7,9-Dimethyl-11-(2-fluorophenyl)-6-(4-fluorophenyl)-5,6-dihydro-pyrimido[4′,5′-3,4]pyrrolo[1,2-a]quinoxaline-8,10-(7H,9H)-dione]
53%	81%	Cc1ccccc1-c1c2c(=O)n(C)c(=O)n(C)c2c2n1-c1ccccc1NC2c1ccccc1F (stereo not shown) [PPQ-234, 7,9-Dimethyl-11-(2-methylphenyl)-6-(2-fluorophenyl)-5,6-dihydro-pyrimido[4′,5′-3,4]pyrrolo[1,2-a]quinoxaline-8,10-(7H,9H)-dione]
12%	80%	Cc1cc2c(cc1C)-n1c(-c3ccccc3)c3c(=O)n(C)c(=O)n(C)c3c1C(c1ccc(O)cc1O)N2 (stereo not shown) [PPQ-235, 2,3,7,9-Tetramethyl-11-phenyl-6-(2,4-dihydroxyphenyl)-5,6-dihydro-pyrimido[4′,5′-3,4]pyrrolo[1,2-a]quinoxaline-8,10-(7H,9H)-dione]
14%	80%	Cc1cc2c(cc1C)-n1c(-c3ccccc3)c3c(=O)n(C)c(=O)n(C)c3c1C(c1cccc(O)c1O)N2 (stereo not shown) [PPQ-236, 2,3,7,9-Tetramethyl-11-phenyl-6-(2,3-dihydroxyphenyl)-5,6-dihydro-pyrimido[4′,5′-3,4]pyrrolo[1,2-a]quinoxaline-8,10-(7H,9H)-dione]
20%	58%	Cc1ccc(C2Nc3ccccc3-n3c(-c4ccccc4F)c4c(=O)n(C)c(=O)n(C)c4c32)cc1 (stereo not shown) [PPQ-237, 7,9-Dimethyl-11-(2-fluorophenyl)-6-(4-methylphenyl)-5,6-dihydro-pyrimido[4′,5′-3,4]pyrrolo[1,2-a]quinoxaline-8,10-(7H,9H)-dione]
22%	57%	Cc1cccc(-c2c3c(=O)n(C)c(=O)n(C)c3c3n2-c2ccccc2NC3c2ccc(F)cc2)c1 (stereo not shown) [PPQ-238, 7,9-Dimethyl-11-(3-methylphenyl)-6-(4-fluorophenyl)-5,6-dihydro-pyrimido[4′,5′-3,4]pyrrolo[1,2-a]quinoxaline-8,10-(7H,9H)-dione]
45%	76%	Cn1c(=O)c2c(-c3ccccc3)n3c(c2n(C)c1=O)C(c1cccc(F)c1)Nc1ccccc1-3 (stereo not shown) [PPQ-239, 7,9-Dimethyl-11-phenyl-6-(3-fluorophenyl)-5,6-dihydro-pyrimido[4′,5′-3,4]pyrrolo[1,2-a]quinoxaline-8,10-(7H,9H)-dione]
30%	74%	Cn1c(=O)c2c(-c3ccccc3)n3c(c2n(C)c1=O)C(c1cccc(O)c1)Nc1ccccc1-3 (stereo not shown) [PPQ-240, 7,9-Dimethyl-11-phenyl-6-(3-hydroxyphenyl)-5,6-dihydro-pyrimido[4′,5′-3,4]pyrrolo[1,2-a]quinoxaline-8,10-(7H,9H)-dione]
16%	74%	COc1cc(C2Nc3ccccc3-n3c(-c4cccc(C)c4)c4c(=O)n(C)c(=O)n(C)c4c32)ccc1O (stereo not shown) [PPQ-241, 7,9-Dimethyl-11-(3-methylphenyl)-6-(3-methoxy-4-hydroxyphenyl)-5,6-dihydro-pyrimido[4′,5′-3,4]pyrrolo[1,2-a]quinoxaline-8,10-(7H,9H)-dione]
